Experimental data: BindingDB's records for doi:10.1016/j.bmcl.2004.10.084 (University of Illinois At Chicago, 2005)

Target: Beta-secretase 1 (Homo sapiens, UniProt P56817)
Test: Enzyme Inhibition Measurements
Conditions: pH 4.5; 37 °C
Experimental: Enzyme activities were assayed by monitoring the hydrolysis of substrate in the presence or absence of inhibitor compounds. The hydrolysis was recorded as the increase in fluorescence intensity over a 10 min time period. […] The Ki was calculated by using Ki = IC50/ (1 + [S]/Km), and a Km value determined according to Michaelis-Menten.

Chain of Beta-secretase 1 (P56817 whole entry): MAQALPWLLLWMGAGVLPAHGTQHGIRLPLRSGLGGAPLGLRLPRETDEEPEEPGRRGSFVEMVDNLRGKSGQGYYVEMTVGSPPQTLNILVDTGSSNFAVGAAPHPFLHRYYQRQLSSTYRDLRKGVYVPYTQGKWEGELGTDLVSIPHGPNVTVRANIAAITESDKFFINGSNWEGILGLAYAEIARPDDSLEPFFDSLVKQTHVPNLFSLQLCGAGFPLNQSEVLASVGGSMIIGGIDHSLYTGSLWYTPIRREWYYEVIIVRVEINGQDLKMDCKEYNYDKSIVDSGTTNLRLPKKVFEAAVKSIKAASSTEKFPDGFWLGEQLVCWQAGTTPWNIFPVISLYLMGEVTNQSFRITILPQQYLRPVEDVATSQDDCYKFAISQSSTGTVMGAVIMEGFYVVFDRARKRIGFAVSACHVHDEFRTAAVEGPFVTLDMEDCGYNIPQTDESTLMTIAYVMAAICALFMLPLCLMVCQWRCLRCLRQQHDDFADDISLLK

`C=CCNC(=O)C[C@H](NC(=O)[C@@H](NC(=O)OCC=C)C(C)C)C(=O)N[C@@H](CC(C)C)[C@@H](O)C[C@@H](C)C(=O)N[C@H](C(=O)NCc1ccccc1)C(C)C` [prop-2-en-1-yl N-[(1S)-1-{[(1S)-1-{[(1R,3S,4S)-1-{[(1S)-1-(benzylcarbamoyl)-2-methylpropyl]carbamoyl}-3-hydroxy-1,6-dimethylheptan-4-yl]carbamoyl}-2-(prop-2-en-1-ylcarbamoyl)ethyl]carbamoyl}-2-methylpropyl]carbamate] was tested, and the Ki was 26.6 nM.
